Tested on: rodent lifetime carcinogenesis bioassay, tumor incidence TD50
Assay: chronic cancer bioassays in animals – CPDB, compiled studies (AID 1745844)
Conditions: mouse, strain B6C3F1, males, inhaled

C=CC=C
TD50 (site: all sites, lesion: malignant lymphoma, mixed type + malignant lymphoma, lymphocytic type + malignant lymphoma, dosed 26 weeks, study length 104 weeks): 31.3 mg/kg/day
TD50 (site: all sites, lesion: malignant lymphoma, mixed type + malignant lymphoma, lymphocytic type + malignant lymphoma, dosed 40 weeks, study length 104 weeks): 108 mg/kg/day
TD50 (site: all sites, lesion: malignant lymphoma, mixed type + malignant lymphoma, lymphocytic type + malignant lymphoma, dosed 52 weeks, study length 104 weeks): 46.4 mg/kg/day
TD50 (site: all sites, lesion: malignant lymphoma, mixed type + malignant lymphoma, dosed 13 weeks, study length 104 weeks): 78.1 mg/kg/day
TD50 (site: all sites, lesion: malignant lymphoma, mixed type + malignant lymphoma, dosed 26 weeks, study length 104 weeks): 111 mg/kg/day
TD50 (site: all sites, lesion: malignant lymphoma, mixed type + malignant lymphoma, dosed 40 weeks, study length 104 weeks): 487 mg/kg/day
TD50 (site: all sites, lesion: malignant lymphoma, mixed type + malignant lymphoma, dosed 52 weeks, study length 104 weeks): 76.2 mg/kg/day
TD50 (site: any site (literature study), lesion: several types, types named in the paper, dosed 13 weeks, study length 104 weeks): 6.92 mg/kg/day
TD50 (site: any site (literature study), lesion: several types, types named in the paper, dosed 26 weeks, study length 104 weeks): 12.5 mg/kg/day
TD50 (site: any site (literature study), lesion: several types, types named in the paper, dosed 40 weeks, study length 104 weeks): 10.8 mg/kg/day
TD50 (site: any site (literature study), lesion: several types, types named in the paper, dosed 52 weeks, study length 104 weeks): 5.84 mg/kg/day
TD50 (site: any site (literature study), lesion: several types, types named in the paper, dosed 60 weeks, study length 60 weeks): 28.8 mg/kg/day
TD50 (site: any site (literature study), lesion: several types, types named in the paper, dosed 82 weeks, study length 104 weeks): 10.5 mg/kg/day
TD50 (site: brain, lesion: olfactory lobe, glioma malignant, dosed 13 weeks, study length 104 weeks): 230 mg/kg/day
TD50 (site: brain, lesion: olfactory lobe, glioma malignant, dosed 26 weeks, study length 104 weeks): 403 mg/kg/day
TD50 (site: brain, lesion: olfactory lobe, neuroblastoma malignant, dosed 13 weeks, study length 104 weeks): 394 mg/kg/day
TD50 (site: forestomach, lesion: papilloma, NOS + squamous-cell carcinoma + squamous-cell papilloma, dosed 60 weeks, study length 60 weeks): 120 mg/kg/day
TD50 (site: forestomach, lesion: papilloma, NOS + squamous-cell papilloma, dosed 60 weeks, study length 60 weeks): 140 mg/kg/day
TD50 (site: forestomach, lesion: squamous-cell carcinoma + squamous-cell papilloma, dosed 13 weeks, study length 104 weeks): 44.8 mg/kg/day
TD50 (site: forestomach, lesion: squamous-cell carcinoma + squamous-cell papilloma, dosed 26 weeks, study length 104 weeks): 91.4 mg/kg/day
TD50 (site: forestomach, lesion: squamous-cell carcinoma + squamous-cell papilloma, dosed 40 weeks, study length 104 weeks): 171 mg/kg/day
TD50 (site: forestomach, lesion: squamous-cell carcinoma + squamous-cell papilloma, dosed 52 weeks, study length 104 weeks): 42.8 mg/kg/day
TD50 (site: forestomach, lesion: squamous-cell carcinoma + squamous-cell papilloma, dosed 60 weeks, study length 60 weeks): 557 mg/kg/day
TD50 (site: forestomach, lesion: squamous-cell carcinoma + squamous-cell papilloma, dosed 82 weeks, study length 104 weeks): 197 mg/kg/day
TD50 (site: forestomach, lesion: squamous-cell carcinoma, dosed 13 weeks, study length 104 weeks): 43.4 mg/kg/day
TD50 (site: forestomach, lesion: squamous-cell carcinoma, dosed 26 weeks, study length 104 weeks): 136 mg/kg/day
TD50 (site: forestomach, lesion: squamous-cell carcinoma, dosed 52 weeks, study length 104 weeks): 154 mg/kg/day
TD50 (site: forestomach, lesion: squamous-cell papilloma, dosed 13 weeks, study length 104 weeks): 117 mg/kg/day
TD50 (site: forestomach, lesion: squamous-cell papilloma, dosed 26 weeks, study length 104 weeks): 284 mg/kg/day
TD50 (site: forestomach, lesion: squamous-cell papilloma, dosed 40 weeks, study length 104 weeks): 171 mg/kg/day
TD50 (site: forestomach, lesion: squamous-cell papilloma, dosed 52 weeks, study length 104 weeks): 77.7 mg/kg/day
TD50 (site: forestomach, lesion: squamous-cell papilloma, dosed 82 weeks, study length 104 weeks): 230 mg/kg/day
TD50 (site: heart + peritoneal cavity, lesion: hemangiosarcoma, dosed 60 weeks, study length 60 weeks): 96.7 mg/kg/day
TD50 (site: heart, lesion: hemangiosarcoma, dosed 13 weeks, study length 104 weeks): 32.6 mg/kg/day
TD50 (site: heart, lesion: hemangiosarcoma, dosed 26 weeks, study length 104 weeks): 18.5 mg/kg/day
TD50 (site: heart, lesion: hemangiosarcoma, dosed 40 weeks, study length 104 weeks): 21.9 mg/kg/day
TD50 (site: heart, lesion: hemangiosarcoma, dosed 52 weeks, study length 104 weeks): 13.9 mg/kg/day
TD50 (site: heart, lesion: hemangiosarcoma, dosed 60 weeks, study length 60 weeks): 96.7 mg/kg/day
TD50 (site: heart, lesion: hemangiosarcoma, dosed 82 weeks, study length 104 weeks): 64.8 mg/kg/day
TD50 (site: jejunum, lesion: carcinoma, dosed 82 weeks, study length 104 weeks): 310 mg/kg/day
TD50 (site: kidney, lesion: adenoma + tubule adenoma, dosed 52 weeks, study length 104 weeks): 190 mg/kg/day
TD50 (site: kidney, lesion: tubule adenoma, dosed 13 weeks, study length 104 weeks): 201 mg/kg/day
TD50 (site: kidney, lesion: tubule adenoma, dosed 26 weeks, study length 104 weeks): 961 mg/kg/day
TD50 (site: kidney, lesion: tubule adenoma, dosed 40 weeks, study length 104 weeks): 161 mg/kg/day
TD50 (site: kidney, lesion: tubule adenoma, dosed 82 weeks, study length 104 weeks): 268 mg/kg/day
TD50 (site: liver, lesion: hepatoblastoma + hepatocellular carcinoma, dosed 13 weeks, study length 104 weeks): 23.4 mg/kg/day
TD50 (site: liver, lesion: hepatoblastoma + hepatocellular carcinoma, dosed 26 weeks, study length 104 weeks): 60 mg/kg/day
TD50 (site: liver, lesion: hepatoblastoma + hepatocellular carcinoma, dosed 52 weeks, study length 104 weeks): 41.4 mg/kg/day
TD50 (site: liver, lesion: hepatocellular adenoma + hepatoblastoma + hepatocellular carcinoma, dosed 13 weeks, study length 104 weeks): 15.1 mg/kg/day
TD50 (site: liver, lesion: hepatocellular adenoma + hepatoblastoma + hepatocellular carcinoma, dosed 26 weeks, study length 104 weeks): 23.8 mg/kg/day
TD50 (site: liver, lesion: hepatocellular adenoma + hepatoblastoma + hepatocellular carcinoma, dosed 52 weeks, study length 104 weeks): 13.8 mg/kg/day
TD50 (site: liver, lesion: hepatocellular adenoma + hepatocellular carcinoma + neoplastic nodule, dosed 13 weeks, study length 104 weeks): 15.1 mg/kg/day
TD50 (site: liver, lesion: hepatocellular adenoma + hepatocellular carcinoma + neoplastic nodule, dosed 26 weeks, study length 104 weeks): 23.8 mg/kg/day
TD50 (site: liver, lesion: hepatocellular adenoma + hepatocellular carcinoma + neoplastic nodule, dosed 40 weeks, study length 104 weeks): 16.8 mg/kg/day
TD50 (site: liver, lesion: hepatocellular adenoma + hepatocellular carcinoma + neoplastic nodule, dosed 52 weeks, study length 104 weeks): 14.6 mg/kg/day

Source: PubChem BioAssay AID1745844 (Carcinogenic Potency Database (CPDB), 2022)
